Source: US20260078120A1, “SUBSTITUTED PYRIDOPYRIMIDINONES” (MIRATI THERAPEUTICS, INC., priority 2022, published 2026)
pIC50: −log10 of the molar value. Where two headings read alike, the source gives them in different places.

What was measured:
[1] = test system: SKBR3 (PI3Kα wild type) cells; assay: CellTiter-Glo 2.0 luminescent cell viability assay, 72 hours, SKBR3 cells; type: cell-based; conditions: SKBR3 (PI3Kα wild type) cells, CellTiter-Glo, approximately 72 hours, read-out: SKBR3 (WT) Viability IC50
Outline: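 Viability measured via CTG luminescence following roughly 72 hours of compound exposure at 37° C. Dosing used a 10 um starting concentration diluted 1:4 over 10 points; percent-of-vehicle data fitted with a variable-slope four-parameter model for IC50.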

[2] = test system: T47D (PI3Kα H1047R mutant) cells; assay: CellTiter-Glo 2.0 luminescent cell viability assay, 72 hours, T47D cells; type: cell-based; conditions: T47D (PI3Kα H1047R mutant) cells, CellTiter-Glo, approximately 72 hours, read-out: T47D (H1047R mutant) Viability IC50
Outline: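 Cells seeded at 1000 per well overnight were dosed with a 10-concentration, 1:4 series starting at 10 µM and incubated ~72 h at 37° C. Viability was read by CellTiter-Glo 2.0 luminescence after 30 min at room temperature. IC50 came from four-parameter fits of percent vehicle control.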

Row | SMILES | pIC50 ([1]; Homo sapiens, SK-BR-3, 72 h) | pIC50 ([2]; Homo sapiens, T47D, 72 h) | pIC50 [1] | pIC50 [2]
1 | Cc1cc([C@@H](C)Nc2ccccc2C(=O)O)c2nc(N3CC4CC(C3)C4(C)O)c(C)c(=O)n2c1 (stereo partly drawn) [Example 11-34, 2-(((1R)-1-(2-(6-hydroxy-6-methyl-3-azabicyclo[3.1.1]heptan-3-yl)-3,7-dimethyl-4-oxo-4H-pyrido[1,2-a]pyrimidin-9-yl)ethyl)amino)benzoic acid] | < 5.00 | 6.67 |  | 
2 | CO[C@H]1CN(c2nc3c([C@@H](C)Nc4ccccc4C(=O)O)cc(C)cn3c(=O)c2C#N)CC1(F)F [Example 11-116, 2-(((R)-1-(3-cyano-2-((S)-3,3-difluoro-4-methoxypyrrolidin-1-yl)-7-methyl-4-oxo-4H-pyrido[1,2-a]pyrimidin-9-yl)ethyl)amino)benzoic acid] | < 5.00 | 6.81 |  | 
3 | Cc1cc([C@@H](C)Nc2ccccc2C(=O)O)c2nc([C@H]3CCN(C)C(=O)C3)cc(=O)n2c1 [Example 11-376, 2-(((R)-1-(7-methyl-2-((S)-1-methyl-2-oxopiperidin-4-yl)-4-oxo-4H-pyrido[1,2-a]pyrimidin-9-yl)ethyl)amino)benzoic acid] | < 5.00 | 5.22 |  | 
4 | Cc1cc([C@@H](C)Nc2ccccc2C(=O)O)c2nc(N3CCc4ccccc4C3)c(C)c(=O)n2c1 [Example 10-7, (R)-2-((1-(2-(3,4-dihydroisoquinolin-2(1H)-yl)-3,7-dimethyl-4-oxo-4H-pyrido[1,2-a]pyrimidin-9-yl)ethyl)amino)benzoic acid] | < 5.00 | 7.77 |  | 
5 | Cc1cc([C@@H](C)Nc2ccc(F)cc2C(=O)O)c2nc(N3CCC(F)(F)CC3)c(C#N)c(=O)n2c1 [Example 11-90, (R)-2-((1-(3-cyano-2-(4,4-difluoropiperidin-1-yl)-7-methyl-4-oxo-4H-pyrido[1,2-a]pyrimidin-9-yl)ethyl)amino)-5-fluorobenzoic acid] | < 5.00 | 6.51 |  | 
6 | Cc1cc([C@@H](C)Nc2ccccc2C(=O)O)c2nc(N3CCN(c4ccc(C(F)(F)F)cc4C#N)C[C@H]3C)c(C#N)c(=O)n2c1 [Example 11-76, 2-(((R)-1-(3-cyano-2-((R)-4-(2-cyano-4-(trifluoromethyl)phenyl)-2-methylpiperazin-1-yl)-7-methyl-4-oxo-4H-pyrido[1,2-a]pyrimidin-9-yl)ethyl)amino)benzoic acid] | < 5.00 | 6.47 |  | 
7 | Cc1cc([C@@H](C)Nc2ccc(F)cc2C(=O)O)c2nc(N3Cc4ccccc4C3)c(C)c(=O)n2c1 [Example 11-366, (R)-5-fluoro-2-((1-(2-(isoindolin-2-yl)-3,7-dimethyl-4-oxo-4H-pyrido[1,2-a]pyrimidin-9-yl)ethyl)amino)benzoic acid] | 5.02 | 6.84 |  | 
8 | Cc1cc([C@@H](C)Nc2ccccc2C(=O)O)c2nc(N3Cc4ccncc4C3)c(C#N)c(=O)n2c1 [Example 11-286, (R)-2-((1-(3-cyano-2-(1,3-dihydro-2H-pyrrolo[3,4-c]pyridin-2-yl)-7-methyl-4-oxo-4H-pyrido[1,2-a]pyrimidin-9-yl)ethyl)amino)benzoic acid] | < 5.00 | 6.55 |  | 
9 | Cc1cc(C(C)Nc2ccccc2C(=O)O)c2nc(-c3cnn(C)c3)cc(=O)n2c1 (centres unmarked) [Example 11-405, 2-((1-(7-methyl-2-(1-methyl-1H-pyrazol-4-yl)-4-oxo-4H-pyrido[1,2-a]pyrimidin-9-yl)ethyl)amino)benzoic acid] | < 5.00 | 5.08 |  | 
10 | Cc1cc(C(C)Nc2ccccc2C(=O)O)c2nc(SC3CCOC3)cc(=O)n2c1 (centres unmarked) [Example 11-370, 2-((1-(7-methyl-4-oxo-2-((tetrahydrofuran-3-yl)thio)-4H-pyrido[1,2-a]pyrimidin-9-yl)ethyl)amino)benzoic acid] | < 5.00 | < 5.00 |  | 
11 | CC(=O)N1CCN(c2cc(=O)n3cc(C)cc(C(C)Nc4ccccc4C(=O)O)c3n2)CC1 (centres unmarked) [Example 11-337, 2-((1-(2-(4-acetylpiperazin-1-yl)-7-methyl-4-oxo-4H-pyrido[1,2-a]pyrimidin-9-yl)ethyl)amino)benzoic acid] | < 5.00 | < 5.00 |  | 
12 | Cc1cc([C@@H](C)Nc2ccccc2C(=O)O)c2nc(N3C4CCC3CC(F)(F)C4)c(C)c(=O)n2c1 [Example 11-189, 2-(((1R)-1-(2-(3,3-difluoro-8-azabicyclo[3.2.1]octan-8-yl)-3,7-dimethyl-4-oxo-4H-pyrido[1,2-a]pyrimidin-9-yl)ethyl)amino)benzoic acid] | < 5.00 | 6.58 |  | 
13 | Cc1cc([C@@H](C)Nc2ccc(Cl)nc2C(=O)O)c2nc(N3CCN(c4ccc(F)cc4)C[C@H]3C)c(C#N)c(=O)n2c1 [Example 11-131, 6-chloro-3-(((R)-1-(3-cyano-2-((R)-4-(4-fluorophenyl)-2-methylpiperazin-1-yl)-7-methyl-4-oxo-4H-pyrido[1,2-a]pyrimidin-9-yl)ethyl)amino)picolinic acid] | < 5.00 | 6.51 |  | 
14 | Cc1cc([C@@H](C)Nc2ccccc2C(=O)O)c2nc(N3CC(C(F)(F)F)C3)c(C#N)c(=O)n2c1 [Example 11-106, (R)-2-((1-(3-cyano-7-methyl-4-oxo-2-(3-(trifluoromethyl)azetidin-1-yl)-4H-pyrido[1,2-a]pyrimidin-9-yl)ethyl)amino)benzoic acid] | < 5.00 | 6.93 |  | 
15 | Cc1cc([C@@H](C)Nc2ccccc2C(=O)O)c2nc(NCC3(F)CC3)c(C#N)c(=O)n2c1 [Example 11-155, (R)-2-((1-(3-cyano-2-(((1-fluorocyclopropyl)methyl)amino)-7-methyl-4-oxo-4H-pyrido[1,2-a]pyrimidin-9-yl)ethyl)amino)benzoic acid] | < 5.00 | 6.78 |  | 
16 | Cc1cc([C@@H](C)Nc2ccc(F)nc2C(=O)O)c2nc(N3CCC(F)(F)CC3)c(C)c(=O)n2c1 [Example 11-45, (R)-3-((1-(2-(4,4-difluoropiperidin-1-yl)-3,7-dimethyl-4-oxo-4H-pyrido[1,2-a]pyrimidin-9-yl)ethyl)amino)-6-fluoropicolinic acid] |  |  | < 5.00 | 5.53

The next lines start with the values.

Row | pIC50 ([1]; Homo sapiens, SK-BR-3, 72 h) | pIC50 ([2]; Homo sapiens, T47D, 72 h) | pIC50 [1] | pIC50 [2] | SMILES
17 | < 5.00 | 6.80 |  |  | Cc1cc([C@@H](C)Nc2ccccc2C(=O)O)c2nc(N3CC[C@H](C)C(F)(F)C3)c(C)c(=O)n2c1 [Example 11-60, 2-(((R)-1-(2-((S)-3,3-difluoro-4-methylpiperidin-1-yl)-3,7-dimethyl-4-oxo-4H-pyrido[1,2-a]pyrimidin-9-yl)ethyl)amino)benzoic acid]
18 | < 5.00 | 6.78 |  |  | Cc1cc([C@@H](C)Nc2ccccc2C(=O)O)c2nc(NCC3CC3(F)F)c(C#N)c(=O)n2c1 (stereo partly drawn) [Example 11-158, 2-(((1R)-1-(3-cyano-2-(((2,2-difluorocyclopropyl)methyl)amino)-7-methyl-4-oxo-4H-pyrido[1,2-a]pyrimidin-9-yl)ethyl)amino)benzoic acid]
19 | < 5.00 | 6.54 |  |  | Cc1cc([C@@H](C)Nc2ccccc2C(=O)O)c2nc(N3C[C@@H]4[C@H](C3)[C@H]4C(F)(F)F)c(C)c(=O)n2c1 [Example 11-445, 2-(((R)-1-(3,7-dimethyl-4-oxo-2-((1R,5S,6R)-6-(trifluoromethyl)-3-azabicyclo[3.1.0]hexan-3-yl)-4H-pyrido[1,2-a]pyrimidin-9-yl)ethyl)amino)benzoic acid]
20 | < 5.00 | 6.28 |  |  | Cc1cc([C@@H](C)Nc2ccccc2C(=O)O)c2nc(N3CCC[C@@H](C(F)(F)F)C3)c(C)c(=O)n2c1 [Example 11-211, 2-(((R)-1-(3,7-dimethyl-4-oxo-2-((R)-3-(trifluoromethyl)piperidin-1-yl)-4H-pyrido[1,2-a]pyrimidin-9-yl)ethyl)amino)benzoic acid]
21 | < 5.00 | < 5.00 |  |  | Cc1cc(C(C)Nc2ccccc2C(=O)O)c2nc(C3CCNCC3)cc(=O)n2c1 (centres unmarked) [Example 11-380, 2-((1-(7-methyl-4-oxo-2-(piperidin-4-yl)-4H-pyrido[1,2-a]pyrimidin-9-yl)ethyl)amino)benzoic acid]
22 | < 5.00 | 6.45 |  |  | Cc1cc([C@@H](C)Nc2ccccc2C(=O)O)c2nc(N(C)CC3CC3)c(C)c(=O)n2c1 [Example 11-203, (R)-2-((1-(2-((cyclopropylmethyl)(methyl)amino)-3,7-dimethyl-4-oxo-4H-pyrido[1,2-a]pyrimidin-9-yl)ethyl)amino)benzoic acid]
23 | < 5.00 | 5.97 |  |  | Cc1cc(C(C)Nc2ccccc2C(=O)O)c2nc(-c3ccccc3)c(C)c(=O)n2c1 (centres unmarked) [Example 11-403, 2-((1-(3,7-dimethyl-4-oxo-2-phenyl-4H-pyrido[1,2-a]pyrimidin-9-yl)ethyl)amino)benzoic acid]
24 | < 5.00 | 5.87 |  |  | Cc1cc([C@@H](C)Nc2ccccc2C(=O)O)c2nc(N3CCC[C@H](C(F)(F)F)C3)c(C)c(=O)n2c1 [Example 11-212, 2-(((R)-1-(3,7-dimethyl-4-oxo-2-((S)-3-(trifluoromethyl)piperidin-1-yl)-4H-pyrido[1,2-a]pyrimidin-9-yl)ethyl)amino)benzoic acid]
25 | < 5.00 | 6.92 |  |  | Cc1cc([C@@H](C)Nc2ccccc2C(=O)O)c2nc(N3CC4CC4C3)c(C)c(=O)n2c1 (stereo partly drawn) [Example 11-224, 2-(((1R)-1-(2-(3-azabicyclo[3.1.0]hexan-3-yl)-3,7-dimethyl-4-oxo-4H-pyrido[1,2-a]pyrimidin-9-yl)ethyl)amino)benzoic acid]
